Our source for the EC50 and pEC50 values is PMC8955485, “Journey on VX-809-Based Hybrid Derivatives towards Drug-like F508del-CFTR Correctors: From Molecular Modeling to Chemical Synthesis and Biological Assays” (Pharmaceuticals, 2022).

The target in test [1] is T1, F508del-CFTR (Homo sapiens, UniProt P13569, DEL508-508). Details: expressed in transfected cells. The settings on record: first series of hybrids, cited from earlier work; for pEC50: from EC50 of ref 27.
For test [2], the target named is T1, F508del-CFTR. The experiment in a line: HS-YFP functional assay for F508del-CFTR correctors in CFBE41o- cells. In kind it is cell-based. More on the design: expressed in transfected cells. The note with it: CFBE41o- cells stably expressing F508del-CFTR and HS-YFP; 24 h incubation; stimulation with forskolin 20 µM plus VX-770 1 µM. The protocol: The ability of these compounds to correct the basic defects related to F508del mutant was evaluated on immortalized CFBE41o-bronchial epithelial cells stably expressing F508del-CFTR and the halide sensitive yellow fluorescent protein (HS-YFP).
The measurements of the rate of HS-YFP quenching caused by iodide influx allowed us to determine the activity of F508del-CFTR, after incubation with the compounds, as cited. Activity was then compared to that of cells treated with the corrector VX-809 (1 µM) or with vehicle alone (DMSO).
Within the novel third series of hybrids herein proposed, based on their potency and efficacy in terms of CFTR rescue, we selected six compounds and determined the dose–response relationships (Figure 6). To this aim, F508del-CFTR expressing CFBE41o-cells were treated for 24 h with our hybrids 9b, 9f, 9g, 9h, 9j, and 9y and then mutant CFTR activity was measured by using the YFP functional assay (see Materials and Methods section for details).
Immortalized bronchial epithelial CFBE41o-cells with stable co-expression of the halide-sensitive yellow fluorescent protein (HS-YFP) and of F508del-CFTR were cultured using MEM medium supplemented with 10% fetal calf serum, 100 U/mL penicillin, 2 mM L-glutamine, and […] streptomycin.
CFBE41o-cells co-expressing mutants CFTR and HS-YFP were plated (50,000 cells/well) on clear-bottom 96-well black microplates (Corning Life Sciences, Acton, MA) and grown at 37 °C in 5% CO2 for 24 h. For the corrector assay, CFBE41o-cells were treated for further 24 h with compounds as indicated. The following day, prior to the assay, the culture medium was removed and cells were stimulated for 30 min at 37 °C with 60 µL PBS (containing 137 mM NaCl, 2.7 mM KCl, 8.1 mM Na2HPO4, 1.5 mM KH2PO4, 1mM CaCl2, and 0.5 mM MgCl2) plus forskolin (20 µM) and VX-770 (1 µM).
Microplates containing CFBE41o-cells were then transferred to a plate reader (FluoStar Galaxy; BMG Labtech, Offenburg, Germany) equipped with excitation (HQ500/20X: 500 ± 10 nm) and emission (HQ535/30M: 535 ± 15 nm) filters for YFP (Chroma Technology, Brattleboro, VT, USA). During the assay fluorescence was measured continuously for 14 s with 2 s before and 12 s after injection of an iodide containing solution (165 µL of a modified PBS containing I^- instead of Cl^-; final I^- concentration in the well: 100 mM).
Fluorescence data were normalized for the initial value and fluorescence quenching rate following I^- influx, were determined by fitting the final 10 s of data for each well with an exponential function to extrapolate initial slope (dF/dt).
To evaluate the dose–response relationships, activity slopes obtained for each compound at the different concentrations were fitted with the Hill equation using the Igor software (WaveMetrics) to extrapolate EC50, maximal effect, and Hill coefficient.

“And” between values parts separate entries of the source, which are not always exact repeats. Identical values can stand only once. Like-named read-outs stand apart in the source and are kept apart here. Some results are limits rather than exact numbers.

T1 sequence (P13569 with tags, fused parts or gaps DEL508-508): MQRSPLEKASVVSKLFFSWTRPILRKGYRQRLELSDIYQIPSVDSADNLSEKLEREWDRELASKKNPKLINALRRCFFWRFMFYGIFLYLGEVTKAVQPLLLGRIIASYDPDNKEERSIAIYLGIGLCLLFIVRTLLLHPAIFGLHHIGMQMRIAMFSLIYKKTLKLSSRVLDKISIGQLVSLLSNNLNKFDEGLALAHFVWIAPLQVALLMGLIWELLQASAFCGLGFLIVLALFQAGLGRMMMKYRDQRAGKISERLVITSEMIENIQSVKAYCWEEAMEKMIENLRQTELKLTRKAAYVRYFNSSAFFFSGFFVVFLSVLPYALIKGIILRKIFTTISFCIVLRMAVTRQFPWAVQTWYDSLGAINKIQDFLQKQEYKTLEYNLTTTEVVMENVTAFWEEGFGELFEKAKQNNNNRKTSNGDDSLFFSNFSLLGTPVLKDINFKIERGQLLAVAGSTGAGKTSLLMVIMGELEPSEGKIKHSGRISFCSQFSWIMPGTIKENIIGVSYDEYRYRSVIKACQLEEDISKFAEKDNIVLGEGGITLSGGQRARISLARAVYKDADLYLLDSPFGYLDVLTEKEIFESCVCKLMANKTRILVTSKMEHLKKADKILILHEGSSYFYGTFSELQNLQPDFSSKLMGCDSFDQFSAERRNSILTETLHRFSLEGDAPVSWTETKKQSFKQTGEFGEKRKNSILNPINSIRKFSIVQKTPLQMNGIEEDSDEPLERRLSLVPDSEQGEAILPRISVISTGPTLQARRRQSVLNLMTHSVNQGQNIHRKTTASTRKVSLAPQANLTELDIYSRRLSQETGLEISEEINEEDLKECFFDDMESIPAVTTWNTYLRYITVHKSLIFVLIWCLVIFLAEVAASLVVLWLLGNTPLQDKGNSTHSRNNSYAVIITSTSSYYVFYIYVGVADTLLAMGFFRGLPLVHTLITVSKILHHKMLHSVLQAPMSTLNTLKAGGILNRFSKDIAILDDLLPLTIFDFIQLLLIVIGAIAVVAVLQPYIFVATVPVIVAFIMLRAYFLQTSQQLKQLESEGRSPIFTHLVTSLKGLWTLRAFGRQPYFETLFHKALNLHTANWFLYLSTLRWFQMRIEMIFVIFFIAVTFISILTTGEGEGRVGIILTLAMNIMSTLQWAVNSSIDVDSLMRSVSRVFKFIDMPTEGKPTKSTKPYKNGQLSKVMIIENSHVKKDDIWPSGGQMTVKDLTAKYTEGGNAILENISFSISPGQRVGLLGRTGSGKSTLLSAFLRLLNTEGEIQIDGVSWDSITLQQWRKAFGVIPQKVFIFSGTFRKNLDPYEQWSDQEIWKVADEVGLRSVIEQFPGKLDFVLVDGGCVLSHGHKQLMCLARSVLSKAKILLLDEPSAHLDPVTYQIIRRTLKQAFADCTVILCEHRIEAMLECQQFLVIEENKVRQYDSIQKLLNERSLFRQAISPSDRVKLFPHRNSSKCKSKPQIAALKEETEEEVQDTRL

For the molecule `O=C(c1ccccc1)c1sc(NC(=O)C2(c3ccc4c(c3)OCO4)CC2)nc1-c1ccccc1` [Compound 2a], in test [1], the EC50 is 87 nM and the pEC50 was 7.06 M.
As to `CCOC(=O)c1sc(NC(=O)C2(c3ccc4c(c3)OCO4)CC2)nc1-c1ccc(Br)cc1` [Compound 2b], in test [1], the EC50 was 300 nM and the pEC50 was 6.52 M.
For the molecule `CCOC(=O)c1sc(NC(=O)C2(c3ccc4c(c3)OCO4)CC2)nc1-c1cccc(Cl)c1` [Compound 2c], in test [1], the EC50 was 550 nM and the pEC50 is on record as 6.26 M.
As for `CCOC(=O)c1sc(NC(=O)C2(c3ccc4c(c3)OCO4)CC2)nc1-c1ccc(Cl)cc1` [Compound 2d], in test [1], the EC50 is 900 nM and the pEC50 is listed as 6.05 M.
Take `Cc1sc(NC(=O)C2(c3ccc4c(c3)OCO4)CC2)nc1-c1ccc(Cl)cc1` [Compound 3a]: in test [1], the EC50 was 2900 nM and the pEC50 is 5.54 M.
Consider `Cc1sc(NC(=O)C2(c3ccc4c(c3)OCO4)CC2)nc1-c1ccc(Br)cc1` [Compound 3b], for which, in test [1], the EC50 was 1900 nM and the pEC50 was 5.72 M.
As for `Cc1sc(NC(=O)C2(c3ccc4c(c3)OCO4)CC2)nc1-c1cccc(Cl)c1` [Compound 3c], in test [1], the concentration for a half-maximal effect (EC50) is 2300 nM and the pEC50 is on record as 5.64 M.
In the case of `Cc1sc(NC(=O)C2(c3ccc4c(c3)OCO4)CC2)nc1-c1ccccc1` [Compound 3d], in test [1], the concentration giving a half-maximal response (EC50) was 1600 nM and the pEC50 was 5.80 M.
With `Cc1sc(NC(=O)C2(c3ccc4c(c3)OCO4)CC2)nc1-c1ccc(F)cc1` [Compound 3e], in test [1], the EC50 is 900 nM and the pEC50 is given as 6.05 M.
`O=C(Nc1nc(-c2ccc(Cl)cc2)cs1)C1(c2ccc3c(c2)OCO3)CC1` [Compound 4a]: in test [1], the 50% effective concentration (EC50) was 2900 nM and the pEC50 is reported as 5.54 M.
With `O=C(Nc1nc(-c2ccc(Br)cc2)cs1)C1(c2ccc3c(c2)OCO3)CC1` [Compound 4b], in test [1], the EC50 was 4900 nM and the pEC50 is 5.31 M.
With `O=C(Nc1nc(-c2cccc(Cl)c2)cs1)C1(c2ccc3c(c2)OCO3)CC1` [Compound 4c], in test [1], the EC50 was 8200 nM and the pEC50 is 5.09 M.
With `O=C(Nc1nc(-c2ccc(I)cc2)cs1)C1(c2ccc3c(c2)OCO3)CC1` [Compound 4d], in test [1], the concentration for a half-maximal effect (EC50) was 1200 nM and the pEC50 is recorded as 5.92 M.
Regarding `O=C(Nc1nc(-c2cccc(F)c2)cs1)C1(c2ccc3c(c2)OCO3)CC1` [Compound 4e], in test [1], the EC50 is 2100 nM and the pEC50 is 5.68 M.
In the case of `O=C(Nc1nc(-c2ccc(O)cc2)cs1)C1(c2ccc3c(c2)OCO3)CC1` [Compound 5a], in test [1], the 50% effective concentration (EC50) is 1800 nM and the pEC50 is reported as 5.74 M.
In the case of `O=C(Nc1nc(-c2cccc(O)c2)cs1)C1(c2ccc3c(c2)OCO3)CC1` [Compound 5b], in test [1], the EC50 is 2300 nM and the pEC50 was 5.64 M.
For the molecule `Cc1sc(NC(=O)C2(c3ccc4c(c3)OCO4)CC2)nc1-c1cccc(O)c1` [Compound 5c], in test [1], the half-maximal effective concentration (EC50) is 1200 nM and the pEC50 is 5.92 M.
Take `Cc1sc(NC(=O)C2(c3ccc4c(c3)OCO4)CC2)nc1-c1ccc(O)cc1` [Compound 5d]: in test [1], the concentration for a half-maximal effect (EC50) is 3900 nM and the pEC50 is recorded as 5.41 M.
On to `O=C(O)c1ccc(-c2csc(NC(=O)C3(c4ccc5c(c4)OCO5)CC3)n2)cc1` [Compound 5e], for which, in test [1], the concentration giving a half-maximal response (EC50) was > 5000 nM and 5000 nM; the pEC50 is reported as 5.30 M.
As for `Cc1sc(NC(=O)C2(c3ccc4c(c3)OCO4)CC2)nc1-c1ccc(C(=O)O)cc1` [Compound 5f], in test [1], the EC50 is 2900 nM and the pEC50 is 5.54 M.
`CC(=O)Nc1ccc(-c2csc(NC(=O)C3(c4ccc5c(c4)OCO5)CC3)n2)cc1` [Compound 5g]: in test [1], the EC50 is > 5000 nM and 5000 nM; the pEC50 is recorded as 5.30 M.
In the case of `Cc1sc(NC(=O)C2(c3ccc4c(c3)OC(F)(F)O4)CC2)nc1-c1ccc(Br)cc1` [Compound 6a], in test [1], the EC50 is 3800 nM and the pEC50 is listed as 5.42 M.
Consider `Cc1sc(NC(=O)C2(c3ccc4c(c3)OC(F)(F)O4)CC2)nc1-c1cccc(Cl)c1` [Compound 6b], for which, in test [1], the EC50 is 5400 nM and the pEC50 was 5.27 M.
Regarding `O=C(Nc1nc(-c2cccc(O)c2)cs1)C1(c2ccc3c(c2)OC(F)(F)O3)CC1` [Compound 6c], in test [1], the concentration giving a half-maximal response (EC50) is 1300 nM and the pEC50 is on record as 5.89 M.
With `O=C(Nc1nc(-c2ccc(O)cc2)cs1)C1(c2ccc3c(c2)OC(F)(F)O3)CC1` [Compound 6d], in test [1], the concentration for a half-maximal effect (EC50) is 1700 nM and the pEC50 is recorded as 5.77 M.
Take `COc1ccc(-c2nc(NC(=O)C3(c4ccc5c(c4)OCO5)CC3)sc2C(=O)c2ccccc2)cc1` [Compound 9a, 1-(benzo[d][1, 3]dioxol-5-yl)-N-(5-benzoyl-4-(4-methoxyphenyl)thiazol-2-yl)cyclopropane-1-carboxamide]: the EC50 in test [2] amounted to 350 nM.
Consider `COc1ccc(-c2nc(NC(=O)C3(c4ccc5c(c4)OCO5)CC3)sc2C(=O)c2ccc(OC(F)(F)F)cc2)cc1` [Compound 9c], for which the 50% effective concentration (EC50) in test [2] came to 140 nM.
With `COc1ccc(-c2nc(NC(=O)C3(c4ccc5c(c4)OCO5)CC3)sc2C(=O)c2ccc(SC)cc2)cc1` [Compound 9d], in test [2], the EC50 came out at 100 nM.
Still for that read-out and setting: then `CCOC(=O)c1ccc(C(=O)c2sc(NC(=O)C3(c4ccc5c(c4)OCO5)CC3)nc2-c2ccc(OC)cc2)cc1` [Compound 9e], with 560 nM.
Regarding `COc1ccc(-c2nc(NC(=O)C3(c4ccc5c(c4)OCO5)CC3)sc2C(=O)c2ccc(-c3ccccc3)cc2)cc1` [Compound 9f], the 50% effective concentration (EC50) in test [2] was determined as 140 nM.
Same read-out and setting: then `COc1ccc(-c2nc(NC(=O)C3(c4ccc5c(c4)OCO5)CC3)sc2C(=O)c2cccc(OC)c2)cc1` [Compound 9h], with 120 nM.
On the same count and under the same terms, next, `COc1ccc(C(=O)c2sc(NC(=O)C3(c4ccc5c(c4)OCO5)CC3)nc2-c2cccc(OC)c2)cc1` [Compound 9i, 1-(benzo[d][1,3]dioxol-5-yl)-N-(5-(4-methoxybenzoyl)-4-(3-methoxyphenyl)thiazol-2-yl)cyclopropane-1-carboxamide]: 190 nM; `COc1cccc(-c2nc(NC(=O)C3(c4ccc5c(c4)OCO5)CC3)sc2C(=O)c2ccc(SC)cc2)c1` [Compound 9k]: 360 nM.
As to `CCOC(=O)c1ccc(C(=O)c2sc(NC(=O)C3(c4ccc5c(c4)OCO5)CC3)nc2-c2cccc(OC)c2)cc1` [Compound 9l], the EC50 in test [2] is 490 nM.
In the case of `COc1cccc(-c2nc(NC(=O)C3(c4ccc5c(c4)OCO5)CC3)sc2C(=O)c2ccc(-c3ccccc3)cc2)c1` [Compound 9m], the EC50 in test [2] came out at 740 nM.
Still for that read-out and setting: next, `COc1cccc(-c2nc(NC(=O)C3(c4ccc5c(c4)OCO5)CC3)sc2C(=O)c2ccc(N3CCCC3)cc2)c1` [Compound 9n]: 600 nM; `COc1cccc(C(=O)c2sc(NC(=O)C3(c4ccc5c(c4)OCO5)CC3)nc2-c2cccc(OC)c2)c1` [Compound 9o]: 210 nM.
With `COc1ccc(C(=O)c2sc(NC(=O)C3(c4ccc5c(c4)OCO5)CC3)nc2-c2ccccc2OC)cc1` [Compound 9p, 1-(benzo[d][1,3]dioxol-5-yl)-N-(5-(4-methoxybenzoyl)-4-(2-methoxyphenyl)thiazol-2-yl)cyclopropanecarboxamide], in test [2], the EC50 was 220 nM.
The same measure, in the same setting: next, `COc1ccccc1-c1nc(NC(=O)C2(c3ccc4c(c3)OCO4)CC2)sc1C(=O)c1ccc(OC(F)(F)F)cc1` [Compound 9q]: 150 nM.
